From patent US8604217B2, “Compound, a process for its preparation, a pharmaceutical composition, use of a compound, a method for modulating or regulating serine/threonine kinases and a serine/threonine kinases modulating agent” (Selvita S.A., priority 2009, dated 2013)
Where two headings read alike, the source gives them in different places.

Assays:
[1] = biological target: PIM-1 (Homo sapiens (Human), UniProt P11309); assay: Luminometric kinase assay for PIM1 kinase (Kinase-Glo); assay type: biochemical; conditions: 1 μM ATP, 25 min at RT
Description: Kinase assay was performed using luminescent Kinase-Glo® (Promega) system. The Kinase-Glo® Luminescent Kinase Assay Platform provides a homogeneous, high-throughput screening method for measuring kinase activity by quantifying the amount of ATP remaining in solution following a kinase reaction. The luminescent signal is correlated with the amount of ATP present and is inversely correlated with the kinase activity. Appropriate amounts of both kinase and substrate were mixed in 96-well, white wall plate in the reaction buffer (8 mM MOPS/NaOH, pH7.0, 0.2 mM EDTA, 2 mM MgCl2). Tested compounds were diluted in DMSO and serial dilutions starting with 1 μM were added to the palates. Reaction was initiated by adding 1 μM of ATP solution and conducted for 25 min. at RT. Luminescent signal was detected by adding Kinase-Glo® reagent and measured using a microplate spectrophotometer (Synergy 2 multi-mode microplate reader (BioTek)). IC50 values were obtained by fitting sigmoidal dose-response curve (variable slope) using GraphPad Prism software.

[2] = tested on: human colorectal adenocarcinoma SW480 cells; assay: Growth inhibition test (MTS) on SW480 cells; assay type: cell-based; conditions: read-out: SW480 ED50
Description: (§1) Two thousand cells of human colorectal adenocarcinoma SW480 were inoculated into each well of a 96-well microplate (manufactured by Corning Corp.), and using DMEM/Ham's F121:1 medium (culture medium) containing 5% fetal calf serum (FCS). Next day, a dimethyl sulfoxide (DMSO) solution of each test compound prepared in a concentration of 10 mmol/L was further diluted with culture medium to the desired concentrations (0.1, 0.5, 1, 2.5, 5 and 10 micromol/L), and the diluted solution was added to each well. The individual wells were further cultured in 5% carbon dioxide at 37° C. for 72 hours. After completion of the culture, 10 μl MTS (3-(4,5-Dimethyl-2-thiazolyl)-5-(carboxymethoxyphenyl)-2-(4-sulfophenyl)-2H-tetrazolium, inner salt assay (CellTiter96® AQueous One Solution Cell Proliferation Assay, Promega) was added to each well, and culturing was performed in 5% carbon dioxide at 37° C. for 2 hours. Using a microplate spectrophotometer (Synergy 2 multi-mode microplate reader (BioTek)), the absorbance of each well was measured at 490 nm. The value for cells not incorporated with a test compound was designated as 100%. By comparing these values with the absorbance difference obtained at the well in which each test compound was added, the cell viability (% viability) after treatment with the test compound was calculated.

[3] = tested on: human hepatoma HepG2 cells; assay: Growth inhibition test (MTS) on HepG2 cells; assay type: cell-based; conditions: 72 hours, read-out: HepG2 ED50
Description: as §1, with “human hepatoma HepG2” for “human colorectal adenocarcinoma SW480”, “Corning Corp.)” for “Corning Corp.), and”, “using DMEM” for “using DMEM/Ham's F121:1”, “containing 10%” for “containing 5%”

[4] = tested on: human myelomonocytic, biphenotypic leukemia MV4-11 cells; assay: Growth inhibition test (MTS) on MV4-11 cells; assay type: cell-based; conditions: read-out: MV-4-11 ED50
Description: as §1, with “Ten thousand” for “Two thousand”, “human myelomonocytic, biphenotypic leukemia MV4-11” for “human colorectal adenocarcinoma SW480”, “Corning Corp.)” for “Corning Corp.), and”, “using Iscove's MDM” for “using DMEM/Ham's F121:1”, “containing 10%” for “containing 5%”

[5] = tested on: human acute lymphocytic leukemia E6.1 Jurkat cells; assay: Growth inhibition test (MTS) on E6.1 Jurkat cells; assay type: cell-based; conditions: 72 hours, read-out: Jurkat ED50
Description: as §1, with “Twenty thousand” for “Two thousand”, “human acute lumphocytic leukemia E6.1 Jurkat” for “human colorectal adenocarcinoma SW480”, “Corning Corp.)” for “Corning Corp.), and”, “using […]” for “using DMEM/Ham's F121:1”, “containing 10%” for “containing 5%”

[6] = tested on: human prostate adenocarcinoma PC3 cells; assay: Growth inhibition test (MTS) on PC3 cells; assay type: cell-based; conditions: for IC50: Homo sapiens, PC-3, 72 hours, read-out: PC-3 ED50
Description: as §1, with “human prostate” for “human colorectal”, “adenocarcinoma PC3” for “adenocarcinoma SW480”, “using F12K (Ham's F12:[…] 1:1)” for “using DMEM/Ham's F121:1”, “containing 10%” for “containing 5%”

[7] = tested on: human breast adenocarcinoma MCF7 cells; assay: Growth inhibition test (MTS) on MCF7 cells; assay type: cell-based; conditions: read-out: MCF-7 ED50
Description: as §1, with “human breast” for “human colorectal”, “adenocarcinoma MCF7” for “adenocarcinoma SW480”, “using DMEM” for “using DMEM/Ham's F121:1”, “containing 10%” for “containing 5%”

Sequence of PIM-1 (P11309 whole entry): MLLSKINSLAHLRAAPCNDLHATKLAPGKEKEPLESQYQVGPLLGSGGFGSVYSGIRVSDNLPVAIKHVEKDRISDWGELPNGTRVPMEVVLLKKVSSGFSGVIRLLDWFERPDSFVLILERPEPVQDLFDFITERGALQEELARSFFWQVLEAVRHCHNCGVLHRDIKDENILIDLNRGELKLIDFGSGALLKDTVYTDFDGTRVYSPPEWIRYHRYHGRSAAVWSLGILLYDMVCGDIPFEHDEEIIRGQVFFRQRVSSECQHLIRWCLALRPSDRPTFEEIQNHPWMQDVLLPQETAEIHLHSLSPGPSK

| SMILES | IC50 [1] | IC50 ([2]; 72 hours) | IC50 [3] | IC50 ([4]; Homo sapiens, MV4-11, 72 hours) | IC50 [5] | IC50 [6] | IC50 ([2]; Homo sapiens, SW480, 72 hours) | IC50 ([7]; Homo sapiens, MCF7, 72 hours) | PC-3 ED50 ([6]; 72 hours) | IC50 ([4]; 72 hours) | IC50 ([7]; 72 hours) |
| --- | --- | --- | --- | --- | --- | --- | --- | --- | --- | --- | --- |
| Brc1c(Br)c(Br)c2[nH]c(NCCN3CCOCC3)nc2c1Br [Compound 16, 4,5,6,7-tetrabromo-N-(2-morpholinoethyl)-1H-benzo[d]imidazol-2-amine] | 0.107 µM | 9.68 µM | 8.78 µM |  |  |  |  |  |  |  |  |
| Brc1c(Br)c(Br)c2[nH]c(N3CCOCC3)nc2c1Br [Compound 19, 4,5,6,7-tetrabromo-2-morpholino-1H-benzo[d]imidazole] | 0.0294 µM |  |  | 6.83 µM | 4.63 µM |  |  |  |  |  |  |
| Brc1c(Br)c(Br)c2[nH]c(NCCCN3CCCC3)nc2c1Br [Compound 58] | 0.0257 µM |  | 2.93 µM | 1.54 µM | 3.37 µM |  |  |  |  |  |  |
| CN(C)CCCN1CCN(c2nc3c(Br)c(Br)c(Br)c(Br)c3[nH]2)CC1 [Compound 75, 3-(4-(4,5,6,7-tetrabromo-1H-benzo[d]imidazol-2-yl)piperazin-1-yl)-N,N-dimethylpropan-1-amine] | 0.279 µM |  | 5.85 µM | 3.33 µM | 7.79 µM |  |  |  |  |  |  |
| Brc1c(Br)c(Br)c2[nH]c(N3CCN(CCN4CCCCC4)CC3)nc2c1Br [Compound 76, 4,5,6,7-tetrabromo-2-(4-(2-(piperidin-1-yl)ethyl)piperazin-1-yl)-1H-benzo[d]imidazole] | 0.117 µM |  | 4.54 µM | 5.27 µM | 3.06 µM |  |  |  |  |  |  |
| Brc1c(Br)c(Br)c2[nH]c(NCCCN3CCOCC3)nc2c1Br [Compound 192, 4,5,6,7-tetrabromo-N-(3-morpholinopropyl)-1H-benzo[d]imidazol-2-amine] | 0.0454 µM |  | 6.23 µM | 5.13 µM | 7.67 µM |  |  |  |  |  |  |
| Oc1ccc(CCNc2nc3c(Br)c(Br)c(Br)c(Br)c3[nH]2)cc1 [Compound 243, 4-(2-(4,5,6,7-tetrabromo-1H-benzo[d]imidazol-2-ylamino)ethyl)phenol] |  |  | 9 µM | 6.84 µM | 6.12 µM |  |  |  |  |  |  |
| Fc1ccc(CNc2nc3c(Br)c(Br)c(Br)c(Br)c3[nH]2)cc1F [Compound 296, N-(3,4-difluorobenzyl)-4,5,6,7-tetrabromo-1H-benzo[d]imidazol-2-amine] | 0.17 µM |  | 5.91 µM | 4.15 µM | 8.12 µM | 4.21 µM |  |  |  |  |  |
| OC1CCC(Nc2nc3c(Br)c(Br)c(Br)c(Br)c3[nH]2)CC1 (stereo not drawn) [Compound 309, 4-(4,5,6,7-tetrabromo-1H-benzo[d]imidazol-2-ylamino)cyclohexanol] | 0.0159 µM |  | 4.87 µM | 5.54 µM | 8.18 µM |  |  |  |  |  |  |
| Brc1c(Br)c(Br)c2[nH]c(Nc3ccccn3)nc2c1Br [Compound 329, 4,5,6,7-tetrabromo-N-(pyridin-2-yl)-1H-benzo[d]imidazol-2-amine] | 0.047 µM |  |  |  | 4.45 µM | 4.69 µM |  |  |  |  |  |
| OCCCN1CCN(c2nc3c(Br)c(Br)c(Br)c(Br)c3[nH]2)CC1 [Compound 383, 3-(4-(4,5,6,7-tetrabromo-1H-benzo[d]imidazol-2-yl)piperazin-1-yl)propan-1-ol] | 0.0944 µM |  | 7.12 µM | 3.43 µM |  | 8.3 µM | 3.72 µM | 8.32 µM |  |  |  |
| Brc1c(Br)c(Br)c2[nH]c(N3CCN(Cc4cn5ccccc5n4)CC3)nc2c1Br [Compound 387, 2-(4-((H-imidazo[1,2-a]pyridin-2-yl)methyl)piperazin-1-yl)-4,5,6,7-tetrabromo-1H-benzo[d]imidazole] |  | 3.27 µM |  |  |  |  |  |  | 5.49 µM | 2.13 µM | 9.25 µM |
| N=C(N)N1CCN(c2nc3c(Br)c(Br)c(Br)c(Br)c3[nH]2)CC1 [Compound 392, 4-(4,5,6,7-tetrabromo-1H-benzo[d]imidazol-2-yl)piperazine-1-carboxamidine] | 0.00672 µM |  |  | 7.55 µM |  | 4.48 µM | 1.85 µM |  |  |  |  |
